# Data from patent publication US5168100A, “HP530 compounds and process for preparing the same” (Sapporo Breweries Limited, priority 1990, dated 1992).
# How the values were obtained:
# [1] = system: Bacillus subtilis M45Rec^-; assay: Antimicrobial activity (MIC), Bacillus subtilis M45Rec^-; type: cell-based
# From the text: (§1) The minimum inhibitory concentrations (MIC's) of the HP530 compounds and their derivatives of the invention against bacteria and fungi are shown in Table 2.
# [2] = system: Bacillus subtilis H17Rec^+; assay: Antimicrobial activity (MIC), Bacillus subtilis H17Rec^+; type: cell-based
# From the text: as §1
# [3] = system: Staphylococcus aureus JCM2151; assay: Antimicrobial activity (MIC), Staphylococcus aureus; type: cell-based
# From the text: as §1
# [4] = system: Staphylococcus epidermidis JCM2414; assay: Antimicrobial activity (MIC), Staphylococcus epidermidis; type: cell-based
# From the text: as §1
# [5] = system: Micrococcus luteus JCM1464; assay: Antimicrobial activity (MIC), Micrococcus luteus; type: cell-based
# From the text: as §1
# [6] = system: Escherichia coli JCM1649; assay: Antimicrobial activity (MIC), Escherichia coli; type: cell-based
# From the text: as §1
# [7] = system: Klebsiella pneumoniae JCM1662; assay: Antimicrobial activity (MIC), Klebsiella pneumoniae; type: cell-based
# From the text: as §1
# [8] = system: Proteus vulgaris JCM1668; assay: Antimicrobial activity (MIC), Proteus vulgaris; type: cell-based
# From the text: as §1
# [9] = system: Xanthomonas maltophilia JCM1975; assay: Antimicrobial activity (MIC), Xanthomonas maltophilia; type: cell-based; settings: Stenotrophomonas maltophilia
# From the text: as §1
# [10] = system: Salmonella typhimurium TA1535; assay: Antimicrobial activity (MIC), Salmonella typhimurium; type: cell-based; settings: Salmonella enterica
# From the text: as §1
# [11] = system: Candida albicans JCM1542; assay: Antimicrobial activity (MIC), Candida albicans; type: cell-based
# From the text: as §1
# [12] = system: Saccharomyces cerevisiae JCM1499; assay: Antimicrobial activity (MIC), Saccharomyces cerevisiae; type: cell-based
# From the text: as §1
# [13] = system: mouse fibrosarcoma Meth-A cell line; assay: Antitumor activity, increase in life span of CDF1 mice inoculated with Meth-A cells; type: in vivo; settings: day 1-4
# From the text: 1) CDF1 mice were inoculated intraperitoneally with 1×10^6 cells of mouse fibrosarcoma Meth-A cell line on day 0. HP530 compounds and their derivatives dissolved in a physiological salt solution were administrated intraperitoneally once a day on day 1-4. Increase in life span is represented by the percentage of the ratio of the mean number of surviving days (T) of the treated groups of mice to the mean number of surviving days (C) of the untreated groups of mice.
# [14] = system: W98 cell line; assay: Cytotoxicity (IC100) against W98 cell line; type: cell-based; settings: Homo sapiens; W98 cells, final 10% methanol solutions; read-out: IC100 (100% growth inhibiting concentration)
# Description: 2) Cytotoxicity (IC100) against W98 cell line obtained by converting the lung cells of a human emryo by an SV40 virus was examined in the following way. When the HP530 compounds and their derivatives dissolved in methanol were added to culture solutions in such a manner that the culture solutions were prepared final 10% methanol solutions, the cytotoxicity of the HP530 compounds and their derivatives against the growth of the W98 cells in the culture solution was measured as 100% growth inhibiting concentration (IC100).
# [15] = system: CDF1 mice; assay: Acute toxicity in CDF1 mice; type: in vivo, mouse; settings: intraperitoneal, three CDF1 mice
# [16] = Solubility
# [17] = ethyl acetate, acetone, n-hexane
# [18] = solvents in which soluble (acidic water, organic solvents)
Compound,MIC [1] [µg/mL],MIC [2] [µg/mL],MIC [3] [µg/mL],MIC [4] [µg/mL],MIC [5] [µg/mL],MIC [6] [µg/mL],MIC [7] [µg/mL],MIC [8] [µg/mL],MIC [9] [µg/mL],MIC [10] [µg/mL],MIC [11] [µg/mL],MIC [12] [µg/mL],IC100 [14] [µg/mL],Acute toxicity ([15]; 20 mg/kg),"Solubility [16, 17]","Solubility [16, 18]",Solubility ([16]; water),Antitumor Activity T/C ([13]; 2.5 mg/kg i.p. once a day) [%],Antitumor Activity T/C ([13]; 5.0 mg/kg i.p. once a day) [%],Antitumor Activity T/C ([13]; 10.0 mg/kg i.p. once a day) [%],further results
CC=CC1OC1(C)c1cc(=O)c2c(C)cc3c(c2o1)C(=O)c1c(ccc(C2CC(C)(N(C)C)C(O)C(C)O2)c1O)C3=O (stereo not drawn) [Deacetyl HP530D],0.4,12.5,1.6,6.3,1.6,> 100,> 100,> 100,50,3.2,> 100,50,0.00015,no toxicity,"hardly soluble in ethyl acetate, acetone and n-hexane","Soluble in acidic water, methanol, chloroform and benzene",insoluble in water,–,–,–,Antitumor Activity T/C ([13]; 0.25 mg/kg i.p. once a day): 92%; Antitumor Activity T/C ([13]; 0.5 mg/kg i.p. once a day): 108%; Antitumor Activity T/C ([13]; 1.0 mg/kg i.p. once a day): 123%; Antitumor Activity T/C ([13]; 2.0 mg/kg i.p. once a day): 185%
Cc1cc2c(c3oc(C4(C)OC4C)cc(=O)c13)C(=O)c1c(ccc(C3CC(C)(N(C)C)C(O)C(C)O3)c1O)C2=O (stereo not drawn) [Deacetyl HP530E],0.2,6.3,3.2,6.3,0.4,> 100,> 100,> 100,25,0.4,> 100,> 100,0.00015,–,"hardly soluble in ethyl acetate, acetone and n-hexane","Soluble in acidic water, methanol, chloroform and benzene",insoluble in water,183,> 187,83,Antitumor Activity T/C ([13]; 1.25 mg/kg i.p. once a day): 107%; Acute toxicity ([15]; 5 mg/kg): no toxicity
CC=CC1OC1(C)c1cc(=O)c2c(C)cc3c(c2o1)C(=O)c1c(ccc(C2CC(C)(N(C)C)C(OC(C)=O)C(C)O2)c1O)C3=O (stereo not drawn) [HP530D],0.4,3.2,1.6,3.2,1.6,> 100,> 100,> 100,3.2,1.6,100,6.3,0.0006,–,"hardly soluble in ethyl acetate, acetone and n-hexane","Soluble in acidic water, methanol and chloroform",insoluble in water,–,–,–,Antitumor Activity T/C ([13]; 0.25 mg/kg i.p. once a day): 108%; Antitumor Activity T/C ([13]; 0.5 mg/kg i.p. once a day): 123%; Antitumor Activity T/C ([13]; 1.0 mg/kg i.p. once a day): 192%; Antitumor Activity T/C ([13]; 2.0 mg/kg i.p. once a day): > 215%; Acute toxicity ([15]; 10 mg/kg): no toxicity
CC(=O)OC1C(C)OC(c2ccc3c(c2O)C(=O)c2c(cc(C)c4c(=O)cc(C5(C)OC5C)oc24)C3=O)CC1(C)N(C)C (stereo not drawn) [HP530E],0.2,12.5,6.3,> 100,0.8,> 100,> 100,> 100,> 100,0.8,> 100,> 100,0.0006,no toxicity,"hardly soluble in ethyl acetate, acetone and n-hexane","Soluble in acidic water, methanol, chloroform and benzene",insoluble in water,104,127,> 196,Antitumor Activity T/C ([13]; 20.0 mg/kg i.p. once a day): > 192%
CC=C(C)c1cc(=O)c2c(C)cc3c(c2o1)C(=O)c1c(ccc(C2CC(C)(N(C)C)C(OC(C)=O)C(C)O2)c1O)C3=O (stereo not drawn) [HP530G],3.2,100,50,25,12.5,> 100,> 100,> 100,> 100,100,> 100,> 100,0.1,no toxicity,"hardly soluble in ethyl acetate, acetone and n-hexane","Soluble in acidic water, methanol, chloroform and benzene",insoluble in water,112,123,115,Antitumor Activity T/C ([13]; 20.0 mg/kg i.p. once a day): 123%
